The structures appear in SMILES notation.

Experiment [1] addresses Epidermal growth factor receptor [L858R] (Homo sapiens, UniProt P00533, L858R). Put plainly: HTRF-Based EGFR Biochemical Assays. How it is done: (§1) EGFR biochemical activity measurements were carried out using the homogeneous time-resolved fluorescence (HTRF) assay (Cisbio). Inhibitors and DMSO normalizations were first dispensed to empty black low-volume 384-well plates (Corning) with D300 digital liquid dispenser (HP). All reactions were carried out at room temperature and solutions were added to plates with a Multidrop Combi Reagent Dispenser (ThermoFisher). The reaction mixture (10 μL final volume) contained 1 μM tyrosine kinase peptide-biotin substrate and mutant EGFR in a reaction buffer (50 mM HEPES pH 7,0, 5 mM MgCl2,1 mM MnCl2, 0.01% BSA, 2 mM TCEP, 0.1 mM NaVO4). Enzyme concentrations were adjusted to accommodate varying kinase activities (L858R 0.1 nM, L858R!T790M 0,02 nM). Enzyme reaction solution (2× concentrations, 5 μL) was added to 384-well plates containing compounds and incubated for 30 mins. Enzyme reactions were initiated with the addition of […] of ATP to a final concentration of 100 μM and reacted for 20 mins. Reactions were quenched with the addition of 10 μL of phospho-tyrosine antibody-Europium(III) cryptate (1-to-180 volume ratio) and Streptavidin-XL665 (46.7 nM) in EDTA-containing detection buffer, then incubated at room temperature for 1 hour, and read with a PHERAstar plate reader (excitation =337 nm, emission =620 nm and 665 nm).

In experiment [2] the target is Epidermal growth factor receptor [T790M,L858R] (Homo sapiens, UniProt P00533, L858R/T790M). Briefly: HTRF-Based EGFR Biochemical Assays. How it is done: as §1
Epidermal growth factor receptor [T790M,L858R], sequence (P00533 25-1210 T790M/L858R limits assumed): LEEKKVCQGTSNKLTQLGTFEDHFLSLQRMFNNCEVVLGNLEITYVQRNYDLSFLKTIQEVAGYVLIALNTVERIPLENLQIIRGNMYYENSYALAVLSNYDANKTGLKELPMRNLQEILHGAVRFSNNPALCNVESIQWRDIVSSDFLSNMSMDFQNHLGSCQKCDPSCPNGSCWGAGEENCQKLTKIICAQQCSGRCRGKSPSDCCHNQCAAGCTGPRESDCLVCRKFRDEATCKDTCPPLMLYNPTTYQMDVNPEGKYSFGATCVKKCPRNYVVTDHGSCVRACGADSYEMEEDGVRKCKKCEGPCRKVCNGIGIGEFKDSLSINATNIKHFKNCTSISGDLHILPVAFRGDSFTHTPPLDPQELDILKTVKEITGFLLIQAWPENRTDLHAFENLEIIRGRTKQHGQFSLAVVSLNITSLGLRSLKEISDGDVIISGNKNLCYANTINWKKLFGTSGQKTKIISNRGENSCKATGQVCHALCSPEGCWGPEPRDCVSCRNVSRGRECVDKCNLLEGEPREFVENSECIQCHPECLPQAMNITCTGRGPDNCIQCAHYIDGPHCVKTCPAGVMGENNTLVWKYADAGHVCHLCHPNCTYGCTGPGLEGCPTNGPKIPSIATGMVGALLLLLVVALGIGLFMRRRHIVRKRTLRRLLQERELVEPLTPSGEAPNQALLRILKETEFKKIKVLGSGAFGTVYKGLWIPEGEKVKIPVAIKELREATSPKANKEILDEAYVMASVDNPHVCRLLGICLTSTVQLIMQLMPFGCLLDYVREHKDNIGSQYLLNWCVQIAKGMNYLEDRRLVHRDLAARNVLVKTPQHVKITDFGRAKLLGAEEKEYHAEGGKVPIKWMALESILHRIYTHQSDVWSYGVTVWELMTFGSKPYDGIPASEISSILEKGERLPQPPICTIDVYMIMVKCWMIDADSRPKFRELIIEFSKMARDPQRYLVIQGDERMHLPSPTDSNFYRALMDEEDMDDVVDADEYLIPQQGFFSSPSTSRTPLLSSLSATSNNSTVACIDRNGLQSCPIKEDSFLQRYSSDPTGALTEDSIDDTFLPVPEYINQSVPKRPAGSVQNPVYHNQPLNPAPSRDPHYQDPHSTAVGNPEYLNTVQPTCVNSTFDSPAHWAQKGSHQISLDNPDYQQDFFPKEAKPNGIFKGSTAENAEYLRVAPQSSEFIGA

Epidermal growth factor receptor [L858R], sequence (P00533 25-1210 L858R limits assumed): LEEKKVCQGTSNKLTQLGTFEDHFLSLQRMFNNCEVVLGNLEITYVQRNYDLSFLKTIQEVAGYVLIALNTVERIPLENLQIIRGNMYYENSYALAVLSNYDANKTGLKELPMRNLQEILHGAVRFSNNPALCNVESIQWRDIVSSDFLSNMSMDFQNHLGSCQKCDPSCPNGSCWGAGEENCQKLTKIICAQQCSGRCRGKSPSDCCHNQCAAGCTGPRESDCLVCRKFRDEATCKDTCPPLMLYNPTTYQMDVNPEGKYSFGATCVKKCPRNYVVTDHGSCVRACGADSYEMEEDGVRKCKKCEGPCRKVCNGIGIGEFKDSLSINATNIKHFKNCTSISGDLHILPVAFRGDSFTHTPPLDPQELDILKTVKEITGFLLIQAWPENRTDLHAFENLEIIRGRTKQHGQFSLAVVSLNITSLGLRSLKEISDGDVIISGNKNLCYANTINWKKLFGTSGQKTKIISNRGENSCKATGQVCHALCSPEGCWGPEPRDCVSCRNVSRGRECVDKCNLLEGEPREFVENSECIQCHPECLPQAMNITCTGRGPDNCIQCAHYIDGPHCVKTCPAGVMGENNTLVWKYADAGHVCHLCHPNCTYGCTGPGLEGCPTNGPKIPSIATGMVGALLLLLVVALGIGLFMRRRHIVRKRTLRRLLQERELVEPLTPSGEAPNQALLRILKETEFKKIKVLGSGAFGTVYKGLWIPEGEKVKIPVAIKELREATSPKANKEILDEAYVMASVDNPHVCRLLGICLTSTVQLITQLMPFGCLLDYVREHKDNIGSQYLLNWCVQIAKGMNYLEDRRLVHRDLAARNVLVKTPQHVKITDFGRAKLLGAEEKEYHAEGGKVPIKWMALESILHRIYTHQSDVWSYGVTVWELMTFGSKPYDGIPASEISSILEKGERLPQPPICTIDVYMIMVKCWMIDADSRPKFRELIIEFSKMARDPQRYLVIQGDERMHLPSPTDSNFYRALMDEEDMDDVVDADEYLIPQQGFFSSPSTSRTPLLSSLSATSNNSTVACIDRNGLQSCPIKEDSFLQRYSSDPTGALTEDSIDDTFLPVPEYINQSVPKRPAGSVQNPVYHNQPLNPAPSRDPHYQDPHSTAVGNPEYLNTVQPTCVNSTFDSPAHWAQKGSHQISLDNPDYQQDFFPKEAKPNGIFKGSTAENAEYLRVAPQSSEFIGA

With `O=C(Nc1nccs1)C(c1cccc(F)c1)N1Cc2ncc(Br)cc2C1=O` (stereo not given) [US12377080, Compound 2], the results for the IC50 in experiment [1] and in experiment [2] were 318 nM and 15 nM, respectively.

In the case of `O=C(Nc1ccccn1)C(c1cccc(F)c1)N1Cc2ncc(Br)cc2C1=O` (stereo not given) [US12377080, Compound 3], the IC50 in experiment [1] was > 1000 nM; in experiment [2] it was 40 nM.

Consider `O=C(Nc1nccs1)C(c1cccc(F)c1)N1Cc2cnc(Br)cc2C1=O` (stereo not given) [US12377080, Compound 1], for which the IC50 in experiment [1] is > 1000 nM; in experiment [2], 104 nM.

As to `O=C(Nc1ccccn1)C(c1cccc(F)c1)N1Cc2ccc(Br)nc2C1=O` (stereo not given) [US12377080, Compound 5], the concentration for half-maximal inhibition (IC50) is > 1000 nM in experiment [1] and 114 nM in experiment [2].

For `O=C(Nc1nccs1)C(c1cccc(F)c1)N1Cc2ccc(Br)nc2C1=O` (stereo not given) [US12377080, Compound 4], the IC50 is > 1000 nM in experiment [1] and 14 nM in experiment [2].

For the origin of these results see BindingDB's records for patent US12377080 (Dana-Farber Cancer Institute, 2025).
